Usually IC50 stands for the concentration that gives 50% inhibition. A low value points to greater potency.

Sequence of GST-hRIPK1 (8-327) (Q13546 8-327): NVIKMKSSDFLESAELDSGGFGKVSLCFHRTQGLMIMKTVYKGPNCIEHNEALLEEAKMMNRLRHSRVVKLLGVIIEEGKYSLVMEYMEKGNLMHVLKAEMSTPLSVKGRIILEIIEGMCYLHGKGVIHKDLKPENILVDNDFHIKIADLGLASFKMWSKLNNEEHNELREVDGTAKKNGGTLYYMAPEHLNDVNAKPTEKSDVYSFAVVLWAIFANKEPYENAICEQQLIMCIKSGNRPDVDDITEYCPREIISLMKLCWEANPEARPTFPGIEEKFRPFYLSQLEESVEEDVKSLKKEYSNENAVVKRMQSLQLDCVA

This assay addresses GST-hRIPK1 (8-327) (Homo sapiens (Human), UniProt Q13546). Nature of the assay: Fluorescent Polarization Binding (FP Binding) assay.
`C[C@H]1Oc2cccnc2N(C)C(=O)[C@H]1NC(=O)c1cnn(Cc2ccccc2)n1` [Example 204, 2-benzyl-N-((2R,3S)-2,5-dimethyl-4-oxo-2,3,4,5-tetrahydropyrido[3,2-b][1,4]oxazepin-3-yl)-2H-1,2,3-triazole-4-carboxamide]: the IC50 is 0.1 to 1000 nM.

The molecule `CN1C(=O)[C@@H](NC(=O)c2nnc(C3(c4ccccc4)CC3)[nH]2)COc2cnccc21` [Example 113, (S)—N-(1-methyl-2-oxo-1,2,3,4-tetrahydropyrido[3,4-b][1,4]oxazepin-3-yl)-5-(1-phenylcyclopropyl)-4H-1,2,4-triazole-3-carboxamide] had an IC50 of 0.1 to 1000 nM.

Turning to `CN1C(=O)[C@H](NC(=O)c2nnc(Cc3ccccc3)[nH]2)[C@@H]2C[C@@H]2c2nccnc21` [Example 119A, 5-benzyl-N-((7R,7aR,8aS)-5-methyl-6-oxo-5,6,7,7a,8,8a-hexahydro-cyclopropa[d]pyrazino[2,3-b]azepin-7-yl)-4H-1,2,4-triazole-3-carboxamide], the IC50 was above 3000 nM.

For `C[C@H]1Oc2cccnc2N(C)C(=O)[C@H]1NC(=O)c1nn(Cc2ccc(C#N)cc2)cc1F` [Example 127, 1-(4-Cyanobenzyl)-N-((2R,3S)-2,5-dimethyl-4-oxo-2,3,4,5-tetrahydropyrido[3,2-b][1,4]oxazepin-3-yl)-4-fluoro-1H-pyrazole-3-carboxamide], the half-inhibitory concentration (IC50) was 0.1 to 1000 nM.

`CN1C(=O)[C@H](NC(=O)c2nn(Cc3ccccc3F)cc2F)CCc2nccnc21` [Example 178B, (R)-4-fluoro-1-(2-fluorobenzyl)-N-(5-methyl-6-oxo-6,7,8,9-tetrahydro-5H-pyrazino[2,3-b]azepin-7-yl)-1H-pyrazole-3-carboxamide] had an IC50 above 3000 nM.

In turn, `Cn1cc2c(n1)CC[C@@H](NC(=O)c1nnc(Cc3ccccc3)[nH]1)C(=O)N2` [Example 104A, (R)-5-benzyl-N-(2-methyl-5-oxo-2,4,5,6,7,8-hexahydropyrazolo[4,3-b]azepin-6-yl)-4H-1,2,4-triazole-3-carboxamide] displayed an IC50 above 3000 nM.

Molecule `O=C(NC1COc2cccnc2-n2ccnc21)c1nn(Cc2ccccc2)cc1F` (stereo in doubt) [Example 154A, (R)-1-benzyl-N-(6,7-dihydroimidazo[1,2-d]pyrido[3,2-b][1,4]oxazepin-7-yl)-4-fluoro-1H-pyrazole-3-carboxamide] returned an IC50 above 3000 nM.

Turning to `O=C(N[C@H]1COc2cccnc2NC1=O)c1nnc(C2CCc3ccccc32)[nH]1` (single isomer, unassigned) [Example 102A], the IC50 is 1000 to 10000 nM.

In turn, `C[C@H]1Oc2ncccc2N(C)C(=O)[C@H]1NC(=O)c1nnc(Cc2ccccc2)o1` [Example 193, 5-benzyl-N-((3S,4R)-1,4-dimethyl-2-oxo-1,2,3,4-tetrahydropyrido[2,3-b][1,4]oxazepin-3-yl)-1,3,4-oxadiazole-2-carboxamide] gave an IC50 of 0.1 to 1000 nM.

Consider `CN1C(=O)[C@H](NC(=O)c2nnc(Cc3ccccc3)o2)CCc2cccnc21` [Example 148B, (R)-5-benzyl-N-(9-methyl-8-oxo-6,7,8,9-tetrahydro-5H-pyrido[2,3-b]azepin-7-yl)-1,3,4-oxadiazole-2-carboxamide], for which the IC50 was in the range of 1000 to 10000 nM.

In turn, `O=C(N[C@H]1COc2cccnc2NC1=O)c1nnc(C2CCc3ccccc32)[nH]1` (single isomer, unassigned) [Example 102B] registered an IC50 of 0.1 to 1000 nM.

Regarding `O=C(N[C@H]1C(=O)Nc2ncccc2[C@H]2C[C@H]21)c1nnc(Cc2ccccc2)[nH]1` [Example 110A, 5-benzyl-N-((1aR,2R,8bS)-3-oxo-1,1a,2,3,4,8b-hexahydrocyclopropa[d]pyrido[2,3-b]azepin-2-yl)-4H-1,2,4-triazole-3-carboxamide], the IC50 is above 3000 nM.

As to `CN1C(=O)[C@H](NC(=O)c2nnc(Cc3ccccc3)s2)[C@@H]2C[C@@H]2c2cccnc21` [Example 120B, 5-benzyl-N-((1aR,2R,8bS)-4-methyl-3-oxo-1,1a,2,3,4,8b-hexahydrocyclopropa-[d]pyrido[2,3-b]azepin-2-yl)-1,3,4-thiadiazole-2-carboxamide], the IC50 is above 3000 nM.

Consider `CN1C(=O)[C@@H](NC(=O)c2ncc(Cc3ccccc3)o2)[C@H]2C[C@H]2c2nccnc21` [Example 194, 5-benzyl-N-((7S,7aS,8aR)-5-methyl-6-oxo-5,6,7,7a,8,8a-hexahydrocyclopropa[d]pyrazino[2,3-b]azepin-7-yl)oxazole-2-carboxamide], for which the IC50 fell in the range of 0.1 to 1000 nM.

Take `N#Cc1cccc(Cc2nnc(C(=O)N[C@H]3C(=O)Nc4c(F)cc(F)cc4[C@H]4C[C@H]43)[nH]2)c1` [Example 181A, 5-(3-cyanobenzyl)-N-((1aR,2R,8bS)-5,7-difluoro-3-oxo-1,1a,2,3,4,8b-hexahydrobenzo[b]cyclopropa[d]azepin-2-yl)-4H-1,2,4-triazole-3-carboxamide]: the IC50 is above 3000 nM.

`CN1C(=O)[C@@H](NC(=O)c2cc(CC(F)(F)F)on2)COc2ccccc21` [Example 14, (S)—N-(5-methyl-4-oxo-2,3,4,5-tetrahydrobenzo[b][1,4]oxazepin-3-yl)-5-(2,2,2-trifluoroethyl)isoxazole-3-carboxamide] registered an IC50 of 0.1 to 1000 nM.

Molecule `Cn1ncc2c1CC[C@@H](NC(=O)c1nnc(Cc3ccccc3)[nH]1)C(=O)N2` [Example 118A, (R)-5-benzyl-N-(1-methyl-5-oxo-1,4,5,6,7,8-hexahydropyrazolo[4,3-b]azepin-6-yl)-4H-1,2,4-triazole-3-carboxamide] had an IC50 above 3000 nM.

For `CN1C(=O)[C@H](NC(=O)c2nn(Cc3ccccc3)cc2F)CCc2nn(C)cc21` [Example 109B, (R)-1-benzyl-N-(2,4-dimethyl-5-oxo-2,4,5,6,7,8-hexahydropyrazolo[4,3-b]azepin-6-yl)-4-fluoro-1H-pyrazole-3-carboxamide], the concentration for half-maximal inhibition (IC50) is above 3000 nM.

Turning to `CN1C(=O)[C@H](NC(=O)c2nn(Cc3ccccc3F)cc2F)[C@@H]2C[C@@H]2c2nccnc21` [Example 179B, 4-fluoro-1-(2-fluorobenzyl)-N-((7R,7aR,8aS)-5-methyl-6-oxo-5,6,7,7a,8,8a-hexahydrocyclopropa[d]pyrazino[2,3-b]azepin-7-yl)-1H-pyrazole-3-carboxamide], the IC50 was above 3000 nM.

`Cc1cc2n(n1)CC[C@H](NC(=O)c1nnc(Cc3ccccc3)[nH]1)C(=O)N2C` [Example 129A, (S)-5-Benzyl-N-(2,4-dimethyl-5-oxo-5,6,7,8-tetrahydro-4H-pyrazolo[1,5-a][1,3]diazepin-6-yl)-4H-1,2,4-triazole-3-carboxamide] came in with an IC50 of 0.1 to 1000 nM.

Turning to `CN1C(=O)[C@@H](NC(=O)[C@H]2C[C@@H]2Cc2ccccc2)COc2ccccc21` (single isomer, unassigned) [Example 50B], the IC50 lay within 1000 to 10000 nM.

Molecule `CN1C(=O)[C@H](NC(=O)c2nn(Cc3ccc(F)cc3)cc2F)[C@@H]2C[C@@H]2c2cccnc21` [Example 156A, 4-fluoro-1-(4-fluorobenzyl)-N-((1aR,2R,8bS)-4-methyl-3-oxo-1,1a,2,3,4,8b-hexahydrocyclopropa[d]pyrido[2,3-b]azepin-2-yl)-1H-pyrazole-3-carboxamide] had an IC50 above 3000 nM.

Molecule `CN1C(=O)[C@H](NC(=O)c2nnc(C3(c4ccccc4)CC3)o2)CCc2nccnc21` [Example 180B, (R)—N-(5-methyl-6-oxo-6,7,8,9-tetrahydro-5H-pyrazino[2,3-b]azepin-7-yl)-5-(1-phenylcyclopropyl)-1,3,4-oxadiazole-2-carboxamide] came in with an IC50 above 3000 nM.
